For data set [1], the system named is human red blood cells (RBC). Kind of data set: Hemolysis assay. The data set is classed as cell-based. To be noted: human RBC, 10% hematocrit, 1 hour at 37° C., 31 μM, 94 μM and 156 μM. The protocol: (§1) The polymer's membranolytic potential was determined against human red blood cells (RBC) in phosphate buffer solution (PBS).
(§2) Alternatively, a 10% hematocrit was used and hemolysis was determined after one hour incubation.

Data set [2] can be described thus: Hydrophobicity estimation by reversed-phase HPLC (percent acetonitrile at elution). In kind it is physicochemical. As to conditions: percent of acetonitrile at which the polymer was eluted on reversed-phase C18 HPLC. The protocol:
HPLC chromatograms were performed on C18 columns (Vydak, 250 mm×4.6 or 10 mm) using a linear gradient of acetonitrile in water (1% per minute), both solvents contained 0.1% trifluoroacetic acid. The purified polymers were subjected to mass spectrometry (ZQ Waters) to confirm their composition and stored as a lyophilized powder at −20° C. Prior to being tested, fresh solutions were prepared in water, mixed by vortex, solubilized by ultrasound, centrifuged and then diluted in the appropriate medium.
In order to estimate the hydrophobicity of each polymer, the polymer was eluted with a linear gradient of acetonitrile (1% per minute) on an HPLC reversed-phase C18 column, and the percent of acetonitrile at which the polymer was eluted was used for hydrophobicity estimation (see, “ACN (%)” in Table 3 below).

A further data set is described as follows: Hemolysis assay. The data set is classed as cell-based, human. To be noted: lytic concentration inducing 50% lysis of human red blood cells in PBS, read-out: LC50 (the source's name). As to the method: as §1, §2
The subject of data set [3] is microorganisms in the saliva of healthy human volunteers. As to conditions: fresh human saliva 1:1 with 100 μM agent, pH 5.
Procedure: A solution of the saliva with no anti-bacterial agent served as a control. […] Each of the solutions was spread over a LA plate, and the plated saliva samples were incubated overnight at 37° C. without aeration. The colonies were enumerated and counted to determine the microbicidal effect of the drug. The values of viable colony forming units (CFU) were determined as described above.

Where two headings read alike, the source gives them in different places. Bridge positions count the residues as written; N and C are the ends. Ends that are not written are not given here. Peptide text beside a SMILES is read from it.

`CC[C@H](C)[C@H](NC(=O)[C@H](CCC(=O)O)NC(=O)[C@H](CCC(=O)O)NC(=O)[C@H](Cc1ccccc1)NC(=O)[C@H](CC(=O)O)NC(=O)CNC(=O)[C@H](CC(N)=O)NC(=O)CNC(=O)CNC(=O)CNC(=O)CNC(=O)[C@@H]1CCCN1C(=O)[C@H](CCCNC(=N)N)NC(=O)[C@@H]1CCCN1C(=O)[C@H](N)Cc1ccccc1)C(=O)N1CCC[C@H]1C(=O)N[C@@H](CCC(=O)O)C(=O)N[C@@H](CCC(=O)O)C(=O)N[C@@H](Cc1ccc(O)cc1)C(=O)N[C@@H](CC(C)C)C(=O)O` [bivalirudin]: in data set [1], the hemolytic activity result was “merely a “background level” activity”.
For `CC(C)C[C@H](NC(=O)CNC(=O)CNC(=O)[C@@H](N)CCCNC(=N)N)C(=O)N[C@H]1CSSC[C@@H](C(=O)N[C@H](C(=O)NCC(=O)N[C@@H](CCCNC(=N)N)C(N)=O)C(C)C)NC(=O)[C@H](C(C)C)NC(=O)[C@@H]2CSSC[C@H](NC(=O)[C@H](Cc3ccc(O)cc3)NC1=O)C(=O)N[C@@H](CCCNC(=N)N)C(=O)NCC(=O)N[C@@H](CCCNC(=N)N)C(=O)N[C@@H](Cc1ccccc1)C(=O)N2` [IB-367] (H-RGGLCYCRGRFCVCVGR-NH2; disulfide 5-14, 7-12), in data set [2], the “ACN (%)” value was 45%. The HC50 in the data set “Hemolysis assay” worked out at 7 µM. The “growth of saliva microorganisms (CFU per ml versus incubation time)” value in data set [3] is “inhibited but proliferation is resumed after 30 minutes”.
As to GIGKFLKKAKKFGKAFVKILKK-NH2 [MSI-78], in the data set “Hemolysis assay” (red blood cells (RBC)), the HC50 turned out to be 45 µM. Also, the hemolytic activity entry in data set [1] was “high degree of hemolysis”.
